target: T1, Diacylglycerol O-acyltransferase 2 (Homo sapiens, UniProt Q96PD7); assay: Enzymatic Activity Assay: DGAT2 activity was determined by measuring the amount of enzymatic product triolein (1,2,3-Tri(cis-9-octadecenoyl)glycerol) using the membrane prep mentioned above.The assay was carried out in deep well 384 plates in a final volume of 40 μL at room temperature. The assay mixture contained the following: assay buffer (100 mM Tris.Cl, pH 7.0, 20 mM MgCl2, 5% ethanol), 25 μM of diolein, 10 μM of oleoyl-CoA and 10 ng/μL of DGAT2 membrane.
T1 sequence (Q96PD7 whole entry): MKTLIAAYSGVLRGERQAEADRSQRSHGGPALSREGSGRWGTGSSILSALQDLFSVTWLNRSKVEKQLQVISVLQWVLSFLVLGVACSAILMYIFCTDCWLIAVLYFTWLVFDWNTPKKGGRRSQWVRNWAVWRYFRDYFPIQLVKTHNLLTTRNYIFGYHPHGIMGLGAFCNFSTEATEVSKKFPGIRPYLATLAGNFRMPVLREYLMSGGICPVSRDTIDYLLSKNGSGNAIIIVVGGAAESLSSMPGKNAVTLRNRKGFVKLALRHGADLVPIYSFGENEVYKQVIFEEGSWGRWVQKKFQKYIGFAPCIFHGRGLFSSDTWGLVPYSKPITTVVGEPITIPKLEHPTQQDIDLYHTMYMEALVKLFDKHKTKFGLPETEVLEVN

| Structure (SMILES) | IC50 [µM] |
| --- | --- |
| COC(=O)c1cccc(-c2ccc(CNC(=O)Nc3cccc(Cl)c3Cl)c3cnccc23)c1 | 1.96 |
| COc1cccc(-c2ccc(CNC(=O)Cc3cncc(Br)c3)c3cnccc23)c1 | 7.13 |
| COc1cccc(-c2ccc(CNC(=O)Nc3cccc(Cl)c3Cl)c3ncccc23)c1 | 9.02 |
| COc1cccc(-c2ccc(CNC(=O)Cc3ccccc3Cl)c3cnccc23)c1 | 1.99 |
| COc1cccc(-c2ccc(CNC(=O)c3ccccc3CN3C=C(O)ON3)c3cnccc23)c1 | 4.2 |
| CCOC(=O)CCc1ccc(CNC(=O)Nc2cccc(Cl)c2Cl)c2cnccc12 | 7.61 |
| COc1cccc(-c2ccc(CNC(=O)c3ncc(Br)cn3)c3cnccc23)c1 | 3.39 |
